This is an account of results in patent US11918548B2, “Treatment of avascular or hypovascular micro-tumors” (Katholieke Universiteit Leuven, priority 2017, dated 2024).

The structures appear in SMILES notation. “And” between values parts separate entries of the source, which are not always exact repeats. Equal entries are not always repeated. Bounds are passed on as bounds.

Data set [1] has as its system primary hepatocellular carcinomas (HCCs). As to the kind of experiment: CA4P-induced tumoral necrosis in DENA-induced primary HCCs on cirrhotic liver (histopathology, microangiography). The class given is in vivo, rat. As for the experimental part: (§1) Tumor growth was monitored weekly by MRI from the 9th week after DENA administration until the largest tumor lesion attained more than 1 mm in diameter. All recruited tumor-carrying rats received single intravenous injection of CA4P at 10 mg/kg. T2WI, T1WI, DWI and CE-T1WI were performed 4 h before and 12 h after CA4P therapy. Rats were euthanized after the last time point of MRI for postmortem microangiography and histopathology.
After the last MRI scanning, rats were anesthetized by an intraperitoneal injection of pentobarbital at 50 mg/kg. Then laparotomy was performed with blood collected via postcava and abdominal aorta cannulated, through which barium suspension was injected before the entire tumor-bearing liver was excised. With a digital mammography unit (Em-brace; Agfa-Gevaert, Mortsel, Belgium), postmortem hepatic arteriography was made at 26 kV, 32 mAs to document changes in tumor vascularity. The livers were then fixed and sliced into 3-mm sections in the axial plane corresponding to the MR images, and these sections were radiographed at 26 kV, 18 mAs for qualitative analysis.
(§2) After microangiography, the tumor sections were paraffin imbedded, sliced into 5 μm thickness and stained with hematoxylin and eosin (H&E) for microscopic analysis using an Axiovert 200M microscope equipped with an AxioCam MR monochrome digital camera (Carl Zeiss Inc, Gottingen, Germany) and by AxioVision 4.8 software.
Due to the high analogy to the histopathological progression observed in human liver cancer, rat primary HCCs were diagnosed according to the classical histomorphologic features: malignant hepatocytic tumors, often well vascularized, with wide trabeculae (>3 cell layers), noticeable acinar pattern, small cell changes, cytologic atypia, prominent nucleoli, mitotic activity, vascular invasion, absence of Kupffer cells and the loss of the reticulin network. The differentiation of rat HCCs was further classified into Grade I-IV using a modified 4-scale Edmondson and Steiner system [Schlageter et al. cited above].
Digital images of tumor slices at a magnification of 12.5 were used to estimate the percentage of tumor necrosis by ImageJ software [Buijs et al. (2011) J Vasc Intery Radiol 22, 1175-1180]. Briefly, regions of interest were delineated around the entire tumor and the necrotic tumor, respectively, to get ‘necrotic ratio on each section’. For each tumor section, the axial slide representing this tumor block was selected as ‘section area’. Tumor necrosis on each H&E stained slice was estimated independently by 2 pathologists, and calculated with the equation: Intratumoral necrosis ratio (%)=Σ[Necrotic ratio on each section (%)×section area (mm^2)]×section thickness (mm)/[4/3π r^3] (mm^3).
Statistical analyses were carried out by GraphPad Prism (version 7.02, GraphPad Software Inc, La Jolla, Calif., USA). The Pearson's correlation coefficient was calculated between percentile tumoral necrosis calculated by histopathology and tumor diameter measured from T2WI. Numerical data were presented as mean±standard errors of the mean (SEM). Comparison of percentile tumoral necrosis was performed by unpaired […] t-test; results of ADCs between tumor and liver background were compared by two-way ANOVA. A significant difference was concluded for P<0.05.

Data set [2] concerns micro-HCCs and cirrhotic liver. As to the kind of experiment: In vivo MRI (DWI-derived ADCperf/ADCdiff, T2WI, CE-T1WI) of micro-HCCs and surrounding cirrhotic liver after CA4P. More on the design: species or system rat. How it is done:
Images were acquired on a clinical 3.0T MRI scanner (MAGNETOM Prisma; Siemens, Erlangen, Germany) and a human wrist coil (Hand/Wrist 16, A 1.5 T Tim coil, Siemens). Twenty axial images were acquired, with a slice thickness of 2.0 mm and a gap of 0.4 mm. T2-weighted (repetition time, 4000 ms; echo time, 70 ms; flip angle, 150°; field of view, 75×56 mm^2; matrix, 256×192) and T1-weighted (repetition time, 626 ms; echo time, 15 ms; flip angle, 160°; field of view, 75×56 mm^2; matrix, 256×192) turbo spin echo (TSE) images (T2WI, T1WI) were performed weekly to monitor tumor growth, while T2WI, T1WI, diffusion-weighted imaging (DWI) and consecutive contrast-enhanced (CE-) T1WIs were acquired to evaluate CA4P treatment. For DWI, a 2-dimensional SE echo-planar imaging (EPI) sequence (repetition time, 3500 ms; echo time, 62 ms; flip angle, 90°; field of view, 136×74 mm2; matrix, 96×52) with 8 b values (0, 50, 100, 150, 400, 600, 800 and 1000 seconds/mm^2) was acquired. For CE-MRI, a bolus of 0.2 mmol/kg Gd-DOTA was injected before a series of CE-T1WIs were acquired.?
as §1
On DWI, tumor area was manually contoured with an operator-defined region of interest (ROI) on all tumor-containing images. ADC map was calculated from DWI to quantify therapeutic responses by the following mono-exponential formula: Si=S0×exp (−bi×ADC), in which Si is the signal intensity (SI) measured on the ith b value image, bi is the corresponding b value, and S0 is a variable estimating the intrinsic SI (for b=0 seconds/mm^2).
For the calculation of different ADC values, tumors were freehand delineated only on the central slices with the largest cross-sectional areas on the original DWIs at the b value of 1000 s/mm^2, in order to avoid partial volume effects. The delineation of each tumor lesion was copied to all images with different b values automatically. The average SI per tumor and per b value was then determined. The difference between ADClow (b=0, 50 and 100 s/mm^2) and ADChigh (b=600, 800 and 1000 s/mm^2) was defined as ADCperf to reflect the tissue microcapillary perfusion, while ADChigh was defined as ADCdiff [Chen et al. (2007) Methods. 43, 12-20].

In data set [3] the test system is rhabdomyosarcomas (R1). In words: CA4P in rats with liver implantation of micro rhabdomyosarcomas (R1). The class given is in vivo, rat. The text has this:
To verify whether the above unexpected findings can be supported in other types of solid tumors, we intentionally studied CA4P in a group of rats with liver implantation of rhabdomyosarcomas (R1) ranging from 1 to 5 mm in diameter as monitored by noninvasive longitudinal MRI and verified by postmortem techniques. R1 has been extensively studied on VDA research before but in much larger tumor size.

Data set [4] has as its system cirrhotic liver. In words: Tolerability of the procedures and liver damage in cirrhotic rats after CA4P. The data set is classed as in vivo, rat. How it is done:
as §1, §2

Data set [5] concerns subcutaneous rhabdomyosarcomas. To be noted: large tumors (≥14 cm^3) versus small tumors (<1 cm^3); cited from earlier work.
The test system of data set [6] is implanted tumor models. The conditions noted are these: in vivo; cited from earlier work.
For data set [7], the system named is macro- and micro-cancers. To be noted: input of the model; cited from earlier work.
For data set [8], the system named is rodent sarcoma, squamous cell carcinoma, fibrosarcoma, human renal cell carcinoma, Kaposi's sarcoma and breast carcinoma. The conditions noted are these: intraperitoneal injection; cited from earlier work.
[9] abbreviates: micro-HCC, CA4P 10 mg/kg iv, 12 h.
Where [10] appears, read: 12 h after CA4P 10 mg/kg iv versus baseline.

In the case of `COc1ccc(/C=C\c2cc(OC)c(OC)c(OC)c2)cc1OP(=O)(O)O` [CA4P, combretastatin A-4 phosphate], in data set [1] (histopathology, CA4P 10 mg/kg iv, 12 h), the “tumoral necrosis, hypovascular Grade I-II well-differentiated micro-HCCs (Tumor 1-5)” value was 82.77-96.45%. Further, in data set [1] (setting [9]), the “tumoral necrosis, Grade IV undifferentiated Tumor 7 (vascular lakes)” value is “minimal necrosis” and the “tumoral necrosis, hypervascular Grade III poorly differentiated Tumor 6” value stood at 23.15%. Also, the “rate of tumoral necrosis in hepatic microcancers higher than in larger HCCs” value in data set [1] (micro-HCCs ≤5 mm versus HCCs >5 mm, CA4P 10 mg/kg iv, 12 h) was 36.9% and 36.93%. Further, the “correlation of CA4P-induced tumoral necrosis with tumor diameter, micro-HCCs” value in data set [1] (tumors with diameters of ≤5 mm) is listed as “not linearly correlated”. Besides, in data set [2] (12 h after CA4P 10 mg/kg iv), the “ADCdiff in micro-HCC tumor” value is given as “slightly rose” and the “ADCdiff in surrounding cirrhotic liver” value is listed as “nearly unchanged”. In data set [2] (setting [10]), the “ADCperf (blood perfusion) in micro-HCC tumor” value was “drop of tumor perfusion” and the “ADCperf (blood perfusion) in surrounding cirrhotic liver” value was “sharply decreased blood perfusion”. The “duration of continuous liver ischemia” value in data set [2] (cirrhotic liver, CA4P 10 mg/kg iv) was “at least 12 h”. For the same molecule, in data set [2] (twelve hours after CA4P treatment, T2WI, ADC, CE-T1WI), the “tumoral necrosis on MRI, representative microcancer Tumor 1” value is recorded as “massive tumoral necrosis”. Also, the “histology of representative micro R1 tumor” value in data set [3] (12 h after CA4P treatment, HE stained microscopy) was “massive and partial hemorrhagic tumor necrosis”. Also, the “necrosis in liver-implanted R1 lesions” value in data set [3] (R1 of 1 to 5 mm in diameter, 10 out of 11 lesions) is “over 90%”. For the same molecule, the survival of rats entry in data set [4] (DENA gavage, anesthesia, MRI with contrast and intravenous CA4P treatment, 19 rats) is reported as “All rats survived”. Further, the “necrosis in cirrhotic liver parenchyma” value in data set [4] (microscopy, 12 h after CA4P 10 mg/kg iv) is “necrotic foci scattered in the cirrhotic liver”. Also, the “CA4P efficacy in large tumors relative to small tumors” value in data set [5] is 16.6 fold. In data set [6], the “onset of tumor vascular disruption” value is on record as “less than 1 hour” and the “time to extensive intratumoral necrosis” value is no more than 12 h. Further, the “tumour necrosis (α) known to be induced” value in data set [7] is listed as 50-99%.
As for `COc1cc2c(c(OC)c1OC)-c1ccc(OP(=O)(O)O)cc1[C@@H](NC(C)=O)CC2` [ZD6126, N-acetylcochinol-O-phosphate], in data set [8], the “necrosis in tumors larger than 1 g” value is recorded as roughly 90% and the “necrosis in tumors of less than 0.3 g” value is on record as roughly 25%.
